Measured values from US8802597B2, “Herbicidal pyrimidines” (E I du Pont de Nemours and Company, priority 2003, dated 2014).
Where two headings read alike, the source gives them in different places.

Key:
Type in all cases: in vivo
[1] = test system: chickweed (Stellaria media); test: Test C postemergence; settings: Stellaria media, post-emergence; for pest or weed control at 62 g/ha: 62 g ai/ha, scale 0 to 100 (0 no effect, 100 complete control), read-out: Chickweed plant response rating; for pest or weed control at 250 g/ha: 250 g ai/ha; for pest or weed control at 250 g/ha / pest or weed control at 125 g/ha / pest or weed control at 500 g/ha: scale 0 to 100, read-out: Plant response rating, Chickweed; for pest or weed control at 31 g/ha: 31 g ai/ha, read-out: Plant response rating (scale of 0 to 100), Chickweed; for pest or weed control at 125 g/ha: 125 g ai/ha; for pest or weed control at 500 g/ha: 500 g ai/ha
Text: Seeds or nutlets of plant species selected from bermudagrass (Cynodon dactylon), Surinam grass (Brachiaria decumbens), cocklebur (Xanthium strumarium), corn (Zea mays), crabgrass (Digitaria sanguinalis), woolly cupgrass (Eriochloa villosa), giant foxtail (Setaria faberii), goosegrass (Eleusine indica), johnsongrass (Sorghum halepense), kochia (Kochia scoparia), lambsquarters (Chenopodium album), morningglory (Ipomoea coccinea), eastern black nightshade (Solanum ptycanthum), yellow nutsedge (Cyperus esculentus), pigweed (Amaranthus retroflexus), common ragweed (Ambrosia elatior), soybean (Glycine max), common (oilseed) sunflower (Helianthus annuus), and velvetleaf (Abutilon theophrasti) were planted and treated preemergence with test chemicals formulated in a non-phytotoxic solvent mixture which included a surfactant.
At the same time, plants selected from these crop and weed species and also winter barley (Hordeum vulgare), blackgrass (Alopecurus myosuroides), canarygrass (Phalaris minor), chickweed (Stellaria media), downy brome (Bromus tectorum), green foxtail (Setaria viridis), Italian ryegrass (Lolium multiflorum), wheat (Triticum aestivum), wild oat (Avena fatua) and windgrass (Apera spica-venti) were treated with postemergence applications of some of the test chemicals formulated in the same manner. Plants ranged in height from 2 to 18 cm (1- to 4-leaf stage) for postemergence treatments. Plant species in the flooded paddy test consisted of rice (Oryza sativa), umbrella sedge (Cyperus difformis), duck salad (Heteranthera limosa) and barnyardgrass (Echinochloa crus-galli) grown to the 2-leaf stage for testing. Treated plants and controls were maintained in a greenhouse for 12 to 14 days, after which time all species were compared to controls and visually evaluated. Plant response ratings, summarized in Table C, are based on a scale of 0 to 100 where 0 is no effect and 100 is complete control. A dash (-) response means no test result.

[2] = test system: common (oilseed) sunflower (Helianthus annuus); test: Test C pre/postemergence; settings: Preemergence; for pest or weed control at 62 g/ha / pest or weed control at 125 g/ha / pest or weed control at 250 g/ha / pest or weed control at 500 g/ha / pest or weed control at 31 g/ha: Helianthus annuus, pre-emergence, read-out: Plant response rating, Sunflower
Procedure, shortened: (§1)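 Applications: preemergence onto seeded soil and postemergence onto 1- to 4-leaf seedlings, compound carried in non-phytotoxic solvent plus surfactant. Kept in greenhouse 12 to 14 days. Scored visually relative to untreated controls, 0 (no effect) to 100 (complete control).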

corn (Zea mays) = test: Test C pre/postemergence; settings: for Corn plant response rating (crop injury, 0 = no effect, 100 = complete kill) at 62 g/ha / Corn plant response rating (crop injury, 0 = no effect, 100 = complete kill) at 125 g/ha / Corn plant response rating (crop injury, 0 = no effect, 100 = complete kill) at 250 g/ha / Corn plant response rating (crop injury, 0 = no effect, 100 = complete kill) at 500 g/ha / Corn plant response rating (crop injury, 0 = no effect, 100 = complete kill) at 31 g/ha: Zea mays
Procedure, shortened: as §1

[3] = 62 g ai/ha, scale 0 to 100, 0 no effect, 100 complete control
[4] = post-emergence, Postemergence, 62 g ai/ha, scale 0 to 100 (0 no effect, 100 complete control), read-out: Corn plant response rating
[5] = post-emergence, Postemergence, 125 g ai/ha, scale 0 to 100 (0 no effect, 100 complete control), read-out: Corn plant response rating
[6] = post-emergence, Postemergence, 250 g ai/ha, scale 0 to 100
[7] = post-emergence, Postemergence, 500 g ai/ha, scale 0 to 100
[8] = pre-emergence, Preemergence, 62 g ai/ha, scale 0 to 100, 0 no effect, 100 complete control, read-out: Plant response rating, Corn
[9] = pre-emergence, Preemergence, 125 g ai/ha, scale 0 to 100, read-out: Plant response rating, Corn
[10] = pre-emergence, Preemergence, 250 g ai/ha, scale 0 to 100
[11] = pre-emergence, Preemergence, 500 g ai/ha, scale 0 to 100
[12] = 31 g ai/ha, scale 0 to 100, 0 no effect, 100 complete control
[13] = post-emergence, Postemergence, 31 g ai/ha, read-out: Plant response rating (scale of 0 to 100), Corn
[14] = pre-emergence, Preemergence, 31 g ai/ha, scale 0 to 100, 0 no effect, 100 complete control, read-out: Plant response rating, Corn
[15] = Preemergence, 62 g ai/ha, scale 0 to 100, 0 no effect, 100 complete control
[16] = Preemergence, 125 g ai/ha, scale 0 to 100
[17] = Preemergence, 250 g ai/ha, scale 0 to 100
[18] = Preemergence, 500 g ai/ha, scale 0 to 100
[19] = 16 g ai/ha, scale 0 to 100, 0 no effect, 100 complete control
[20] = Preemergence, 31 g ai/ha, scale 0 to 100, 0 no effect, 100 complete control

SMILES	pest or weed control at 62 g/ha [1]	pest or weed control at 250 g/ha [1]	pest or weed control at 62 g/ha [2, 3]	pest or weed control at 125 g/ha ([2]; 125 g ai/ha, scale 0 to 100)	pest or weed control at 250 g/ha ([2]; 250 g ai/ha, scale 0 to 100)	pest or weed control at 500 g/ha ([2]; 500 g ai/ha, scale 0 to 100)	Corn plant response rating (crop injury, 0 = no effect, 100 = complete kill) at 62 g/ha (corn (Zea mays); [4])	Corn plant response rating (crop injury, 0 = no effect, 100 = complete kill) at 125 g/ha (corn (Zea mays); [5])	Corn plant response rating (crop injury, 0 = no effect, 100 = complete kill) at 250 g/ha (corn (Zea mays); [6])	Corn plant response rating (crop injury, 0 = no effect, 100 = complete kill) at 500 g/ha (corn (Zea mays); [7])	Corn plant response rating (crop injury, 0 = no effect, 100 = complete kill) at 62 g/ha (corn (Zea mays); [8])	Corn plant response rating (crop injury, 0 = no effect, 100 = complete kill) at 125 g/ha (corn (Zea mays); [9])	Corn plant response rating (crop injury, 0 = no effect, 100 = complete kill) at 250 g/ha (corn (Zea mays); [10])	Corn plant response rating (crop injury, 0 = no effect, 100 = complete kill) at 500 g/ha (corn (Zea mays); [11])	pest or weed control at 125 g/ha [1]	pest or weed control at 31 g/ha [2, 12]	Plant response rating, Sunflower [2, 3]	Plant response rating, Corn (corn (Zea mays); [15])	Plant response rating, Corn (corn (Zea mays); [16])	also measured
CCOC(=O)c1nc(C2CC2)nc(N)c1Br [Compound 1, ethyl 6-amino-5-bromo-2-cyclopropyl-4-pyrimidinecarboxylate]	80%	90%	80%	100%	100%	100%	10%	15%	40%	45%	0%	0%	50%	70%						
COC(=O)c1nc(C2CC2)nc(N)c1Br [Compound 2, methyl 6-amino-5-bromo-2-cyclopropyl-4-pyrimidinecarboxylate]	65%	95%	100%	100%	100%		15%	20%	30%		0%		0%		75%	20%				pest or weed control at 31 g/ha [1]: 60%; Corn plant response rating (crop injury, 0 = no effect, 100 = complete kill) at 31 g/ha (corn (Zea mays); [13]): 15%; Corn plant response rating (crop injury, 0 = no effect, 100 = complete kill) at 31 g/ha (corn (Zea mays); [14]): 0%
COC(=O)c1nc(C(C)C)nc(N)c1Br [Compound 3]	0%	40%	0%	0%	0%		0%	0%	0%		0%	0%	0%		0%	0%				pest or weed control at 31 g/ha [1]: 0%; Corn plant response rating (crop injury, 0 = no effect, 100 = complete kill) at 31 g/ha (corn (Zea mays); [13]): 0%; Corn plant response rating (crop injury, 0 = no effect, 100 = complete kill) at 31 g/ha (corn (Zea mays); [14]): 0%
CCOC(=O)c1nc(C2CC2)nc(N)c1Cl [Compound 4, ethyl 6-amino-5-chloro-2-cyclopropyl-4-pyrimidinecarboxylate]	30%	100%	100%	100%	100%	100%	0%	80%	90%	95%		0%	75%	90%	85%					pest or weed control at 500 g/ha [1]: 100%
CNc1nc(C2CC2)nc(C(=O)OC)c1Br [Compound 5]	0%	20%	60%	90%	100%	100%	10%	40%	40%	45%	5%	5%	20%	50%	10%					
Nc1nc(C2CC2)nc(C(=O)O)c1Br [Compound 8]	20%	95%	20%	40%	100%	100%	0%	20%	70%	90%	0%	0%	10%	75%	75%					pest or weed control at 500 g/ha [1]: 100%
CCOC(=O)Cc1nc(C2CC2)nc(N=CN(C)C)c1Br [Compound 33]																	0	0	0	Plant response rating, Sunflower ([2]; 125 g ai/ha, scale 0 to 100): 70; Plant response rating, Sunflower ([2]; 250 g ai/ha, scale 0 to 100): 80; Plant response rating, Sunflower ([2]; 500 g ai/ha, scale 0 to 100): 90; Plant response rating, Corn (corn (Zea mays); [17]): 30; Plant response rating, Corn (corn (Zea mays); [18]): 40
CCOC(=O)c1nc(C2CC2)nc(N=CN(C)C)c1Br [Compound 40]																	5	0	20	Plant response rating, Sunflower ([2]; 125 g ai/ha, scale 0 to 100): 90; Plant response rating, Sunflower ([2]; 250 g ai/ha, scale 0 to 100): 90; Plant response rating, Sunflower ([2]; 500 g ai/ha, scale 0 to 100): 95; Plant response rating, Corn (corn (Zea mays); [17]): 20; Plant response rating, Corn (corn (Zea mays); [18]): 40
CCCOC(=O)c1nc(C2CC2)nc(N)c1Cl [Compound 75]																	100	30	65	Plant response rating, Sunflower [2, 19]: 50; Plant response rating, Sunflower [2, 12]: 70; Plant response rating, Corn (corn (Zea mays); [20]): 0
Nc1nc(C2CC2)nc(C(=O)[O-])c1Cl.[Na+] [Compound 77, 6-amino-5-chloro-2-cyclopropyl-4-pyrimidinecarboxylic acid monosodium salt]			100%													50%		0	35	Plant response rating, Sunflower [2, 19]: 20; Plant response rating, Corn (corn (Zea mays); Preemergence, 16 g ai/ha, scale 0 to 100, 0 no effect, 100 complete control): 0; Plant response rating, Corn (corn (Zea mays); [20]): 0
